Values joined by “and” are separate entries in the source; they are usually repeats but may differ in a detail not shown here. Identical values can stand only once.
Experiment: mn = molality of the nth substance listed, in mol/kg
Conditions: 298.15 K, 101 kPa, Liquid

CNC=O [N-methylformamide] + O
Conditions	mass density
m1 = 0.1996	997.54 kg/m3
m1 = 0.2	997.53 kg/m3 and 997.55 kg/m3
m1 = 0.3493	997.91 kg/m3
m1 = 0.5018	998.28 kg/m3
m1 = 0.5044	998.28 kg/m3
m1 = 0.5343	998.34 kg/m3
m1 = 0.9779	999.42 kg/m3
m1 = 0.9919	999.46 kg/m3
m1 = 1.011	999.49 kg/m3
m1 = 1.499	1000.63 kg/m3
m1 = 1.5	1000.62 kg/m3
m1 = 1.505	1000.65 kg/m3
m1 = 2.006	1001.79 kg/m3
m1 = 2.011	1001.79 kg/m3
m1 = 2.012	1001.79 kg/m3
m1 = 2.47	1002.77 kg/m3
m1 = 2.497	1002.77 kg/m3
m1 = 2.513	1002.86 kg/m3
m1 = 3.022	1003.9 kg/m3
m1 = 3.05	1003.95 kg/m3
m1 = 3.068	1004 kg/m3
m1 = 3.496	1004.81 kg/m3
m1 = 3.499	1004.82 kg/m3 and 1004.81 kg/m3
m1 = 3.989	1005.73 kg/m3
m1 = 3.992	1005.74 kg/m3
m1 = 3.997	1005.73 kg/m3
